Measurements taken from patent publication US11945826B2, “Hydroxypyridoxazepines as NRF2 activators” (GLAXOSMITHKLINE INTELLECTUAL PROPERTY DEVELOPMENT LIMITED, priority 2019, dated 2024).

Legend:
human PXR = biological target: T1, human PXR (Homo sapiens, UniProt O75469); experiment: Human PXR Activation Assay; assay type: cell-based; conditions: for EC50: HepG2 transfected with human PXR and CYP3A4 promoter luciferase, 24 h; for Emax at 24 h: human, percent maximum induction compared to 10 μM rifampicin
T1 construct: expression vectors containing full length human PXR; expressed in transfected cells; host or cells: HepG2 (human hepatocellular carcinoma line), transient transfection with FuGENE
T1 sequence (O75469 1-434): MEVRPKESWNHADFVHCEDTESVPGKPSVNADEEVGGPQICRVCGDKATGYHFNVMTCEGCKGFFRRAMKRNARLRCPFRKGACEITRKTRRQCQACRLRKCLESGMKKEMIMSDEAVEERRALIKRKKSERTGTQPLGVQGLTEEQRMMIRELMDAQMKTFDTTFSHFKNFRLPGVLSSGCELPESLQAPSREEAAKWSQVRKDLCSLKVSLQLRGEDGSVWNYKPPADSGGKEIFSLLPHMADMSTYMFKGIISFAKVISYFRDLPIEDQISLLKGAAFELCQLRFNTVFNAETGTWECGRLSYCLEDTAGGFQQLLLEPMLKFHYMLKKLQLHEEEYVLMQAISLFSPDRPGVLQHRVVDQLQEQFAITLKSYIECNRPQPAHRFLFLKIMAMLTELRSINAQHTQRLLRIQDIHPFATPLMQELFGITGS
Procedure: Transactivation activity of PXR ligands was measured in a human hepatocellular carcinoma line (HepG2) batch transiently transfected using FuGENE™ with expression vectors containing full length human PXR and the human CYP3A4 promoter driving luciferase expression. Following transfection, cells are frozen until required for assay.
On day of assay, cells were recovered, counted on a CEDEX instrument then resuspended to a density of 50,000 cells/mL in phenol red-free DMEM-F12 supplemented with 10% charcoal/dextran-treated FBS. 20 μl of cell suspension was then dispensed to each well of white Nunc 384-well plates, containing […] of test compounds in DMSO. Cells were incubated for 24 h in the presence compound after which time […] of Steady-Lite™ luciferase substrate was added to each well. Luciferase activity was quantified by measurement on the Pherastar™ imager and activity was expressed as percent maximum induction as compared to induction by 10 μM rifampicin.

Monkey PK Study = assay type: in vivo; conditions: cynomolgus monkey; for MRT / clearance: male, plasma, nominal 1 mg/kg 60-minute intravenous infusion, cassette; for MRT: read-out: Monkey Pharmacokinetics MRT; for clearance: read-out: Monkey Pharmacokinetics Total Clearance
Procedure: All studies were conducted after review by the GSK Institutional Animal Care and Use Committee and in accordance with the GSK Policy on the Care, Welfare and Treatment of Laboratory Animals. A pre-study health examination that included a physical exam and complete blood count was performed on the animals prior to use on study. A catheter was temporarily placed in a cephalic or saphenous vein for sample collection on the study day. The animals were fasted overnight prior to dosing; food provided after the 4-hour blood sample was collected. The intravenous and oral solution pharmacokinetic studies were carried out using a non-crossover design; a total of four male cynomolgus monkeys were used, two per route of administration.
The compounds used in this study were the compound of Example 1, herein, and Compound A (the compound of Example 1 of WO 2018/109646).
The dose for intravenous administration was prepared as a cassette of up to five test compounds in 20% Cavitron™ and 5% DMSO. The intravenous dose formulation was filtered through a 0.22-micron polytetrafluoroethylene (PTFE) filter prior to administration. The dose for oral solution administration was prepared as a cassette of up to five compounds in 6% Cavitron™ and 5% DMSO and was filtered through a 0.22-micron VWR PTFE filter prior to administration.
Each animal received a nominal dose of 1 mg/kg/compound (4 mL/kg dose volume) either as a 60-minute intravenous infusion or as an oral gavage. Blood samples (approximately 0.25 mL each) were collected from a cephalic or saphenous vein. Blood samples from animals that received the intravenous dose were collected prior to dosing and at target times of 15, 30, 45, 60 (before termination of the infusion), 62, 65, 75, 90, 120, 180, 240, 360, 480, 600, and 1440 minutes following the initiation of the intravenous infusion. For animals that received the oral dose, blood samples were collected prior to dosing and at target times of 5, 15, 30, 45, 60, 90, 120, 180, 240, 360, 480, 600, and 1440 minutes following oral gavage. Plasma was isolated from blood by centrifugation and a 30 μL aliquot was transferred to a non-heparinized tube, quick frozen on solid carbon dioxide and stored at approximately −80° C. until analyzed by liquid chromatography/tandem mass spectroscopy (LC/MS/MS) for test compound concentration.
Pharmacokinetic parameters for all in vivo PK studies were calculated using non-compartmental methods with Phoenix WinNonlin version 6.1.0 or 8.1.0. All parameters were calculated using actual blood sampling times and actual dosages for each animal. The extrapolated area under the curve (AUC0-inf) was determined using unweighted linear regression analysis of at least three log transformed concentrations visually assessed to be on the linear portion of the terminal elimination slope. Oral solution bioavailability was calculated in a non-crossover fashion using the mean intravenous dose and AUC0-inf values from the two intravenously dosed animals for the monkey PK study and in a crossover fashion for the rat PK study.

EC50 (human PXR)	Emax at 24 h (human PXR)	MRT (Monkey PK Study)	clearance (Monkey PK Study)	fold improvement in mean residence time (MRT) versus Compound A (Monkey PK Study)	fold reduction in total clearance (CL) versus Compound A (Monkey PK Study)	Structure (SMILES)
25 µM	56%	1.6 h	10.9 mL/min/kg	–	–	CC[C@@H]1CN(Cc2cc([C@@H](CC(=O)O)c3ccc4c(nnn4C)c3C)ccc2C)Cc2ncccc2O1 [Compound A, reference compound]
> 50 µM	10%	18 h	0.41 mL/min/kg	~11 fold	~27 fold	CC[C@@H]1CN(Cc2cc([C@@H](CC(=O)O)c3ccc4c(nnn4C)c3C)ccc2C)Cc2nc(O)ccc2O1 [Example 1, (R)-3-(1,4-dimethyl-1H-benzo[d][1,2,3]triazol-5-yl)-3-(3-(((R)-2-ethyl-7-hydroxy-2,3-dihydropyrido[2,3-f][1,4]oxazepin-4(5H)-yl)methyl)-4-methylphenyl)propanoic acid]
